Measurements published in the supplement of paper PMC10307832.

Key:
Experiment in all cases: relative viability (nuclei count vs DMSO), 5 days (fraction); higher = more cells survive
H3255 = tested on: H3255
Procedure, shortened: (§1)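 Cells from lung cancer lines were seeded into 1536-well plates and, one day later, dosed by pin tool. Treatments were either a single drug or a fixed dose of an anchor drug with five library-drug doses (not always all listed) in √10 steps. After 5 days, nuclei were stained in a one-step fixation (final 0.05% Triton X-100, 1% formaldehyde, 1 ug/ml Hoechst) and counted on 4× images, and relative viability is the treated-to-vehicle nuclei ratio, as the median of duplicate plates.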

NCI-H1915 = tested on: NCI-H1915
Procedure, shortened: as §1

LXF-289 = tested on: LXF-289
Procedure, shortened: as §1

A-427 = tested on: A-427
Procedure, shortened: as §1

SK-MES-1 = tested on: SK-MES-1
Procedure, shortened: as §1

NCI-H522 = tested on: NCI-H522
Procedure, shortened: as §1

NCI-H2087 = tested on: NCI-H2087
Procedure, shortened: as §1

SW 1573 = tested on: SW 1573
Procedure, shortened: as §1

NCI-H1793 = tested on: NCI-H1793
Procedure, shortened: as §1

NCI-H1975 = tested on: NCI-H1975
Procedure, shortened: as §1

NCI-H2170 = tested on: NCI-H2170
Procedure, shortened: as §1

LOU-NH91 = tested on: LOU-NH91
Procedure, shortened: as §1

SW 900 = tested on: SW 900
Procedure, shortened: as §1

NCI-H358 = tested on: NCI-H358
Procedure, shortened: as §1

HCC-44 = tested on: HCC-44
Procedure, shortened: as §1

NCI-H520 = tested on: NCI-H520
Procedure, shortened: as §1

HCC-827 = tested on: HCC-827
Procedure, shortened: as §1

COR-L 105 = tested on: COR-L 105
Procedure, shortened: as §1

LCLC-103H = tested on: LCLC-103H
Procedure, shortened: as §1

NCI-H2023 = tested on: NCI-H2023
Procedure, shortened: as §1

NCI-H1944 = tested on: NCI-H1944
Procedure, shortened: as §1

NCI-H1993 = tested on: NCI-H1993
Procedure, shortened: as §1

`Cc1cn(-c2cc(NC(=O)c3ccc(C)c(Nc4nccc(-c5cccnc5)n4)c3)cc(C(F)(F)F)c2)cn1` [Nilotinib] + O=C(CCCCCCC(=O)Nc1ccccc1)NO [Vorinostat] (partner 1 µM) was tested, and the relative viability (H3255; first compound 0.001 µM) was 0.743, the relative viability (H3255; first compound 0.003162 µM) was 0.706 and the relative viability (H3255; first compound 0.03162 µM) was 0.764. The relative viability (H3255; first compound 0.1 µM) was 0.429, the relative viability (NCI-H1915; first compound 0.001 µM) was 0.454 and the relative viability (NCI-H1915; first compound 0.003162 µM) was 0.488. For the same compound, the relative viability (NCI-H1915; first compound 0.01 µM) was 0.501, the relative viability (NCI-H1915; first compound 0.03162 µM) was 0.385 and the relative viability (NCI-H1915; first compound 0.1 µM) was 0.299. It also gave a relative viability (LXF-289; first compound 0.001 µM) of 0.693, a relative viability (LXF-289; first compound 0.003162 µM) of 0.994 and a relative viability (LXF-289; first compound 0.01 µM) of 0.882. For the same compound, the relative viability (LXF-289; first compound 0.03162 µM) was 0.869, the relative viability (LXF-289; first compound 0.1 µM) was 0.534 and the relative viability (A-427; first compound 0.001 µM) was 0.839. The relative viability (A-427; first compound 0.003162 µM) was 0.892, the relative viability (A-427; first compound 0.01 µM) was 0.935 and the relative viability (A-427; first compound 0.03162 µM) was 0.963. The relative viability (A-427; first compound 0.1 µM) was 0.775, the relative viability (SK-MES-1; first compound 0.001 µM) was 1.12 and the relative viability (SK-MES-1; first compound 0.003162 µM) was 0.623. For the same compound, the relative viability (SK-MES-1; first compound 0.01 µM) was 1.33, the relative viability (SK-MES-1; first compound 0.03162 µM) was 0.936 and the relative viability (SK-MES-1; first compound 0.1 µM) was 0.618. It also gave a relative viability (NCI-H522; first compound 0.01 µM) of 1.01, a relative viability (NCI-H522; first compound 0.03162 µM) of 0.749 and a relative viability (NCI-H522; first compound 0.1 µM) of 0.786. It also gave a relative viability (NCI-H2087; first compound 0.001 µM) of 0.707, a relative viability (NCI-H2087; first compound 0.003162 µM) of 0.709 and a relative viability (NCI-H2087; first compound 0.01 µM) of 1.23. It also gave a relative viability (NCI-H2087; first compound 0.03162 µM) of 0.567, a relative viability (NCI-H2087; first compound 0.1 µM) of 0.543 and a relative viability (SW 1573; first compound 0.001 µM) of 0.527. For the same compound, the relative viability (SW 1573; first compound 0.003162 µM) was 0.849, the relative viability (SW 1573; first compound 0.01 µM) was 0.977 and the relative viability (SW 1573; first compound 0.03162 µM) was 0.438. For the same compound, the relative viability (SW 1573; first compound 0.1 µM) was 0.222, the relative viability (NCI-H1793; first compound 0.001 µM) was 0.64 and the relative viability (NCI-H1793; first compound 0.003162 µM) was 0.841. For the same compound, the relative viability (NCI-H1793; first compound 0.01 µM) was 0.688, the relative viability (NCI-H1793; first compound 0.03162 µM) was 0.386 and the relative viability (NCI-H1793; first compound 0.1 µM) was 0.257. It also gave a relative viability (NCI-H1975; first compound 0.001 µM) of 0.598, a relative viability (NCI-H1975; first compound 0.003162 µM) of 0.742 and a relative viability (NCI-H1975; first compound 0.01 µM) of 0.702. It also gave a relative viability (NCI-H1975; first compound 0.03162 µM) of 0.489, a relative viability (NCI-H1975; first compound 0.1 µM) of 0.643 and a relative viability (NCI-H2170; first compound 0.001 µM) of 0.818. For the same compound, the relative viability (NCI-H2170; first compound 0.003162 µM) was 1.16, the relative viability (NCI-H2170; first compound 0.01 µM) was 1.05 and the relative viability (NCI-H2170; first compound 0.03162 µM) was 0.622. For the same compound, the relative viability (NCI-H2170; first compound 0.1 µM) was 0.877, the relative viability (LOU-NH91; first compound 0.001 µM) was 1.03 and the relative viability (LOU-NH91; first compound 0.003162 µM) was 0.936. The relative viability (LOU-NH91; first compound 0.01 µM) was 0.946, the relative viability (LOU-NH91; first compound 0.03162 µM) was 0.898 and the relative viability (LOU-NH91; first compound 0.1 µM) was 0.882. It also gave a relative viability (SW 900; first compound 0.003162 µM) of 0.456, a relative viability (SW 900; first compound 0.01 µM) of 0.624 and a relative viability (SW 900; first compound 0.03162 µM) of 0.216. For the same compound, the relative viability (SW 900; first compound 0.1 µM) was 0.368, the relative viability (NCI-H358; first compound 0.001 µM) was 0.601 and the relative viability (NCI-H358; first compound 0.003162 µM) was 0.747. It also gave a relative viability (NCI-H358; first compound 0.01 µM) of 0.834, a relative viability (NCI-H358; first compound 0.03162 µM) of 0.411 and a relative viability (NCI-H358; first compound 0.1 µM) of 0.424. For the same compound, the relative viability (HCC-44; first compound 0.001 µM) was 1.07, the relative viability (HCC-44; first compound 0.003162 µM) was 1.06 and the relative viability (HCC-44; first compound 0.01 µM) was 1.09. It also gave a relative viability (HCC-44; first compound 0.1 µM) of 1.07, a relative viability (NCI-H520; first compound 0.001 µM) of 0.584 and a relative viability (NCI-H520; first compound 0.003162 µM) of 0.79. For the same compound, the relative viability (NCI-H520; first compound 0.01 µM) was 0.81, the relative viability (NCI-H520; first compound 0.03162 µM) was 0.617 and the relative viability (NCI-H520; first compound 0.1 µM) was 0.699. It also gave a relative viability (HCC-827; first compound 0.001 µM) of 0.835, a relative viability (HCC-827; first compound 0.003162 µM) of 0.983 and a relative viability (HCC-827; first compound 0.03162 µM) of 0.857. For the same compound, the relative viability (HCC-827; first compound 0.1 µM) was 0.822, the relative viability (COR-L 105; first compound 0.001 µM) was 0.744 and the relative viability (COR-L 105; first compound 0.003162 µM) was 1.09. The relative viability (COR-L 105; first compound 0.01 µM) was 0.81, the relative viability (COR-L 105; first compound 0.03162 µM) was 0.76 and the relative viability (COR-L 105; first compound 0.1 µM) was 0.672. For the same compound, the relative viability (LCLC-103H; first compound 0.001 µM) was 0.74, the relative viability (LCLC-103H; first compound 0.003162 µM) was 0.823 and the relative viability (LCLC-103H; first compound 0.01 µM) was 0.858. The relative viability (LCLC-103H; first compound 0.03162 µM) was 0.691, the relative viability (LCLC-103H; first compound 0.1 µM) was 0.433 and the relative viability (NCI-H2023; first compound 0.001 µM) was 0.469. It also gave a relative viability (NCI-H2023; first compound 0.003162 µM) of 0.455, a relative viability (NCI-H2023; first compound 0.01 µM) of 1.06 and a relative viability (NCI-H2023; first compound 0.03162 µM) of 0.41. The relative viability (NCI-H2023; first compound 0.1 µM) was 0.174, the relative viability (NCI-H1944; first compound 0.001 µM) was 0.558 and the relative viability (NCI-H1944; first compound 0.003162 µM) was 0.795. The relative viability (NCI-H1944; first compound 0.01 µM) was 0.671, the relative viability (NCI-H1944; first compound 0.03162 µM) was 0.481 and the relative viability (NCI-H1944; first compound 0.1 µM) was 0.457. The relative viability (NCI-H1993; first compound 0.001 µM) was 0.6, the relative viability (NCI-H1993; first compound 0.003162 µM) was 0.655 and the relative viability (NCI-H1993; first compound 0.01 µM) was 0.843. The relative viability (NCI-H1993; first compound 0.03162 µM) was 0.722 and the relative viability (NCI-H1993; first compound 0.1 µM) was 0.497.
